Test results reported in patent US20170367390A1, “USE OF ELLAGIC ACID DIHYDRATE IN FOOD PRODUCTS AND NUTRACEUTICALS” (HALO LIFE SCIENCE, LLC, priority 2014, published 2017).
“Also recorded” adds a separate entry of the source.

Key:
Activity level in mice = format: in vivo, mouse; settings: mice, Applicant's observation
Source text: Activity levels in mice treated with ellagic acid dihydrate may be quantified by several procedures, such as those outlined in Turri, M. et al.; QTL Analysis Identifies Multiple Behavioral Dimensions in Ethological Tests of Anxiety in Laboratory Mice; Current Biology; 2001; 11(10): 725-734. Two examples of procedures taught therein follows. Gross Locomotor Activity in Home Cage: Mice are caged singly several days prior to home cage activity monitoring and subsequent testing. Activity in home cages are measured during the first 2 hours of the dark cycle on two consecutive days. Two infrared photo emitter-detector pairs, located outside the clear plastic home cage that divide the cage into three equal areas, are used to record gross locomotor activity on the floor of the home cage as the animal breaks the photo beams. The beam-break activity score consists of the square root of the number of beam breaks for each detector summed across the two test days. Magnitude of Activity in Home Cage: Mice are caged singly several days prior to home cage activity monitoring and subsequent testing. Activity in home cages are measured during the first 2 hours of the dark cycle on two consecutive days. An infrared motion detector located above the top of the home cage is employed to converts all motion sensed within the home cage into arbitrary units, based on the magnitude of activity detected.

[1] = Weight loss and blood glucose in female SWV mice with STZ induced diabetes, 30 days gavage; format: in vivo, mouse; settings: thirty days
Method: Weight loss and blood glucose in diabetes induced mice treated with ellagic acid was determined and weight loss and blood glucose in mice treated with ellagic acid dihydrate may be determined by the following procedures. Induction of Diabetes: Diabetes is induced in mice by intraperitoneal injection with Streptozotocin (STZ 40 mg/kg) daily for five days. The mice are considered hyperglycemic when the glucose level of each dam is above 200 mg/dL. The mice are fasted for 4 hours before STZ injection and glucose measurement. Treatment: The mice are treated daily for thirty days with ellagic acid or control in the form of a supplemental pill homogenized and suspended in 25% water solution of Cremophor EL. The mice are treated for one month via gavage using the human equivalent dose of 122.4 mg pill/kg of subject (40.6 mg ellagic acid/kg of the subject), the human equivalent does of 40.6 mg ellagic acid/kg of the subject using 98% pure ellagic acid, or control vehicle (25% water solution of Cremophor EL). The human equivalent dose is calculated as described in Example 8. Treatments would start two weeks after the last STZ injection in which hyperglycemia is confirmed in the diabetic mice. The mice would be weighed daily and glucose levels would be measured in fasted animals every five days.

MEF cells [2] = assay: Glucose uptake, 2-NBDG labeling, high-content imaging (Operetta), MEFs; format: cell-based, mouse
Method: (§1) Increased glucose uptake was indicated as increasing signal of 2-NBDG ([…]) in cells. Glucose uptake assays were carried out in a final incubation volume of 50 μl consisting of, 2-NBDG), (100 μM) in 1× Phosphate Buffered Saline w/Ca+, Mg+ (PBS++). The same buffer was used for washing cells. Insulin was used as a positive control. All testing compounds were prepared in 10% DMSO and diluted 1:100 for a final concentration of 0.1% DMSO (vehicle). Cells were culture to 70-90% confluence and then washed twice with PBS++. Cells were incubated for 30 minutes at 37° C. in PBS++. Nuclear stain, HCS CellMask stain (blue, Invitrogen), and/or testing compounds (ellagic acid dihydrate, insulin, or vehicle) were added. Cells were incubated for 30 min at 37° C. Cells were washed twice with PBS++ and incubated with 2-NBDG for 10 minutes. Cells were washed thrice with PBS++ and then imaged in PBS++. Alternatively, the final PBS wash was removed and cells were incubated with Accutase (Invitrogen) for 10 min at 37° C., neutralized with 10% FBS in 1×PBS, and analyzed by flow cytometry. An additional experiment was performed to measure glucose uptake in C2Cl2 cells exposed to metformin, insulin and ellagic acid dihydrate 2 (batch 2). FIG. 5C. Glucose uptake in ellagic acid dihydrate treated cell culture was measured and compared to glucose uptake under insulin or ellagic acid treatment. […] Flow cytometry results were run in triplicate with 1000 cells per batch.

AKT = assay: AKT:Phos AKT ratio by immunocytochemistry, high-content imaging in C2C12; format: cell-based, mouse; settings: serum starved C2C12, 30 minutes; 4 nM-4 μM for insulin and ellagic acid dihydrate
Method: Stimulation of AKT pathways and MAPK pathways in ellagic acid dihydrate, metformin, and insulin treated cell cultures was performed. Insulin stimulates glucose uptake into cells by increasing GLUT4 activation, and AKT, specifically phos-AKT, signaling alters GLUT4 translocation. […] Cellular assays were performed using mouse myoblast C2C12 cells. […] Serum starved cells (1 hr) were treated for 30 minutes with each of the tested compounds.

p44/42 MAPK = assay: p44/42 MAPK:Phos p44/42 MAPK ratio by immunocytochemistry, high-content imaging in C2C12; format: cell-based, mouse; settings: serum starved C2C12, 30 minutes, 0.04 nM
Method: Stimulation of AKT pathways and MAPK pathways in ellagic acid dihydrate, metformin, and insulin treated cell cultures was performed. Insulin stimulates glucose uptake into cells by increasing GLUT4 activation, and AKT, specifically phos-AKT, signaling alters GLUT4 translocation. […] Cellular assays were performed using mouse myoblast C2C12 cells. Relative protein levels of AKT:phos AKT and p44/42 MAPK:phos p44/42 MAPK were determined.
Serum starved cells (1 hr) were treated for 30 minutes with each of the tested compounds. Ratios of phosphorylated to non-phosphorylated proteins were determined using immunocytochemistry labeling (anti-AKT, anti-Phos AKT; or anti-p44/42 MAPK, anti-Phos p44/42 MAPK) on a high-content imaging system (Operetta, Perkin Elmer) using the fluorescent signal of anti-rabbit Alexa 647. Increased phosphorylation is indicated as decrease in signal of AKT:Phos AKT ratio (log 2 scale) and p44/42 MAPK:Phos p44/42 MAPK ratio (log 2 scale) relative to vehicle treated cells.

GLUT4-GFP = assay: Localization of glucose transporter GLUT4-GFP, time-lapse confocal microscopy in C2C12; format: cell-based, mouse; settings: C2C12, 4000 nM exposure
Method: Induction of glucose transporter, GLUT-4, in ellagic acid dihydrate treated cell cultures was studied. Cellular assays were performed using mouse myoblast C2C12 cells. The cells were infected with a fusion glucose transporter 4 green fluorescent protein (GLUT4-GFP). This protein allows the visualization of GLUT4 by imaging the GFP under fluorescent time-lapse microscopy. Frames were compiled to produce time-lapse images of cellular changes with no treatment or treatment with insulin. The localization of glucose transporter (GLUT4-GFP) was performed in final incubation volume of 505 μL, consisting of 500 μl of Hank's Buffer (Invitrogen) and 5 μl of tested compounds. Insulin was used as positive controls and vehicle (0.1% DMSO) as the negative control. All test compounds were prepared in 10% DMSO and diluted 1:100 for a final concentration of 0.1% DMSO (vehicle). The cells were rinsed in Hank's Buffer thrice and then incubated in Hank's Buffer at 37° C. for one hour. The test compounds were added (ellagic acid dihydrate, insulin, or vehicle) and the cells were imaged using laser-confocal microscopy (Leica TCS SP5 X) with FITC fluorescent filters to determine changes in GLUT4-GFP localization. Time-lapse images (TIF) were collected and post-processed using Image-J (NIH) for video construction.

[3] = test system: mouse myoblast C2C12 cells; assay: Glucose uptake, 2-NBDG labeling, flow cytometry, C2C12; format: cell-based
Method: Cellular assays were performed using mouse myoblast C2C12 cells and MEF cells. […] Increased glucose uptake was indicated as increasing signal of 2-NBDG ([…]) in cells. Glucose uptake assays were carried out in a final incubation volume of 50 μl consisting of, 2-NBDG), (100 μM) in 1× Phosphate Buffered Saline w/Ca+, Mg+ (PBS++). The same buffer was used for washing cells. Insulin was used as a positive control. All testing compounds were prepared in 10% DMSO and diluted 1:100 for a final concentration of 0.1% DMSO (vehicle). Cells were culture to 70-90% confluence and then washed twice with PBS++. Cells were incubated for 30 minutes at 37° C. in PBS++. Nuclear stain, HCS CellMask stain (blue, Invitrogen), and/or testing compounds (ellagic acid dihydrate, insulin, or vehicle) were added. Cells were incubated for 30 min at 37° C. Cells were washed twice with PBS++ and incubated with 2-NBDG for 10 minutes. Cells were washed thrice with PBS++ and then imaged in PBS++. Alternatively, the final PBS wash was removed and cells were incubated with Accutase (Invitrogen) for 10 min at 37° C., neutralized with 10% FBS in 1×PBS, and analyzed by flow cytometry. An additional experiment was performed to measure glucose uptake in C2Cl2 cells exposed to metformin, insulin and ellagic acid dihydrate 2 (batch 2). FIG. 5C.

MEF cells [4] = assay: Glucose uptake, 2-NBDG labeling, flow cytometry, MEFs; format: cell-based, mouse; settings: flow cytometry
Method: as §1, with “Cellular assays were performed using mouse myoblast C2C12 cells and MEF cells. […] Increased” for “Increased”

Molecule | activity levels (Activity level in mice) | mean glucose level values, treated versus control mice ([1]; STZ diabetic mice) | average loss of body weight ([1]; female SWV mice with STZ induced diabetes, human equivalent dose (40.6 mg ellagic acid/kg), gavage daily, control lost 2.2%) [%] | dose effect for increasing glucose uptake (MEF cells [2]) | AKT:Phos AKT ratio (log 2 scale) relative to vehicle treated cells (AKT) | p44/42 MAPK:Phos p44/42 MAPK ratio relative to vehicle (p44/42 MAPK) | GLUT4-GFP localization (GLUT4-GFP) | ruffling of filopodia at the surface of the cell (GLUT4-GFP) | dose effect for increasing glucose uptake ([3]; C2C12, flow cytometry, 2-NBDG) | glucose uptake (2-NBDG signal) relative to vehicle ([3]; C2C12, flow cytometry, vehicle 0.1% DMSO) | increase in glucose uptake in myoblasts relative to fibroblasts ([3]; C2C12 myoblasts versus MEF fibroblasts) [×] | glucose uptake (2-NBDG signal) (MEF cells [2]; versus vehicle (Neg, 0.1% DMSO)) | increased glucose uptake (percent change relative to vehicle) (MEF cells [4]; 400 nM exposure, fibroblasts (MEFs)) [%] | dose effect for increasing glucose uptake (MEF cells [4]; MEFs, 2-NBDG) | glucose uptake (2-NBDG signal) relative to vehicle (MEF cells [4]; MEFs, vehicle 0.1% DMSO) | p44/42 MAPK:Phos p44/42 MAPK ratio relative to vehicle (p44/42 MAPK; 400 nM)
O=c1oc2c(O)c(O)cc3c(=O)oc4c(O)c(O)cc1c4c23 [ellagic acid] | increased activity levels | no significant differences between the mean glucose level values | 11.7 | little to no glucose uptake per unit dose; also recorded: no such dose effect was seen | – | – | – | – | – | – | – | – | – | – | – | –
CN(C)C(=N)N=C(N)N [metformin] | – | – | – | – | increase in AKT relative to phosphorylation of AKT | increased the ratio of p44/42 MAPK | – | – | – | – | – | – | – | – | – | –
insulin [reference compound] | – | – | – | dose effect for increasing glucose uptake | −0.5 | – | decrease in GLUT4-GFP around the cell nucleus and a parallel increase of movement at the membrane | rapid production of numerous projections (ruffling of filopodia) at the surface of the cell | dose effect for increasing glucose uptake | significant increase in glucose uptake relative to the vehicle | ~4 | showed an increase in glucose uptake | 32 | dose effect for increasing glucose uptake | significant increase in glucose uptake relative to the vehicle | increase in p44/42 MAPK
